Test results: patent US8431593B2, “Heteroaryl amide derivatives” (H. Lundbeck A/S, priority 2006, dated 2013)

molecular target: T1, P2X7 receptor (Homo sapiens, UniProt Q99572); assay: P2X7 calcium mobilization assay, high throughput, antagonist activity (Example 4A); assay type: cell-based; settings: not given
T1 construct: host or cells: SH-SY5Y
T1 sequence (Q99572 1-595): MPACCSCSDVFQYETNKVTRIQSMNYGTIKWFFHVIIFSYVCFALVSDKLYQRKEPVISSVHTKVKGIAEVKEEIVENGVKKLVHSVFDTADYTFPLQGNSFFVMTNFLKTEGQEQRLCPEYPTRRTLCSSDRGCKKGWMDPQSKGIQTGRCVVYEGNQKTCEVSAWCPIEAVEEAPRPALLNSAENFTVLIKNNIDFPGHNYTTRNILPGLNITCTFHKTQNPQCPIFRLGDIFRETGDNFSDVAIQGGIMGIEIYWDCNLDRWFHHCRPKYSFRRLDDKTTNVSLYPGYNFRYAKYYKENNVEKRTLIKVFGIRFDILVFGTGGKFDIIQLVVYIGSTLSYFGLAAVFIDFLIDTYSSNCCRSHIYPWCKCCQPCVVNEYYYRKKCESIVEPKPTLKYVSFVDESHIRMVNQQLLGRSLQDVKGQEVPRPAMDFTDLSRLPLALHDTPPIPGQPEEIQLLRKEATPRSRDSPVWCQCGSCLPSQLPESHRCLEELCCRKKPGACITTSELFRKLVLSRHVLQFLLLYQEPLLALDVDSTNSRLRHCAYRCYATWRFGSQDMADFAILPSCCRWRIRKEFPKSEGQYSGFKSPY
In short: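 100,000 cells/well, plated day -1. Dye 1 h → rinse → compound 1 h, RT → FLIPR^TETRA Ca2+ mobilization. Max RFU minus mean negative control (no agonist); mean agonist-well max as positive control.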

SMILES	IC50 [nM]
CCCN(CCC)C(=O)c1cn2c(C(=O)NC[C@@H]3CC[C@H]4C[C@@H]3C4(C)C)cccc2n1 [Compound 476, 5-N-{[(1S,2R,5S)-6,6-dimethylbicyclo[3.1.1]hept-2-yl]methyl}-2-N,2-N-dipropylimidazo[1,2-a]pyridine-2,5-dicarboxamide]	< 2000
CC1(C)CCCN(C(=O)c2cn3c(C(=O)NC[C@@H]4CC[C@H]5C[C@@H]4C5(C)C)cccc3n2)C1 [Compound 491, N-{[(1S,2R,5S)-6,6-dimethylbicyclo [3.1.1]hept-2-yl]methyl}-2-[(3,3-dimethyl-piperidin-1-yl)carbonyl]imidazo [1,2-a]pyridine-5-carboxamide]	< 2000

same assay, conditions: 50% decrease in the fluorescence response of cells exposed to 80 μM 2′(3′)-O-(4-benzoyl-benzoyl)adenosine 5′-triphosphate; Example 4A; read-out: IC50

SMILES	IC50 [nM]
CN(CC1OCCO1)C(=O)c1cn2c(C(=O)NC[C@@H]3CC[C@H]4C[C@@H]3C4(C)C)cccc2n1 [Compound 468, 5-N-{[(1S,2R,5S)-6,6-dimethylbicyclo[3.1.1]hept-2-yl]methyl}-2-N-(1,3-dioxolan-2-ylmethyl)-2-N-methylimidazo[1,2-a]pyridine-2,5-dicarboxamide]	< 2000
CCN(C)C(=O)c1cn2c(C(=O)NC[C@@H]3CC[C@H]4C[C@@H]3C4(C)C)cccc2n1 [Compound 469, 5-N-{[(1S,2R,5S)-6,6-dimethylbicyclo[3.1.1]hept-2-yl]methyl}-2-N-ethyl-2-N-methylimidazo[1,2-a]pyridine-2,5-dicarboxamide]	< 2000
CN(C)C(=O)c1cn2c(C(=O)NC[C@@H]3CC[C@H]4C[C@@H]3C4(C)C)cccc2n1 [Compound 470, 5-N-{[(1S,2R,5S)-6,6-dimethylbicyclo[3.1.1]hept-2-yl]methyl}-2-N,2-N-dimethylimidazo[1,2-a]pyridine-2,5-dicarboxamide]	< 2000
CCCCN(C)C(=O)c1cn2c(C(=O)NC[C@@H]3CC[C@H]4C[C@@H]3C4(C)C)cccc2n1 [Compound 471, 2-N-butyl-5-N-{[(1S,2R,5S)-6,6-dimethylbicyclo[3.1.1]hept-2-yl]methyl}-2-N-methylimidazo[1,2-a]pyridine-2,5-dicarboxamide]	< 2000
COC[C@@H]1CCCN1C(=O)c1cn2c(C(=O)NC[C@@H]3CC[C@H]4C[C@@H]3C4(C)C)cccc2n1 [Compound 473, N-{[(1S,2R,5S)-6,6-dimethylbicyclo[3.1.1]hept-2-yl]methyl}-2-{[(2S)-2-(methoxymethyl)pyrrolidin-1-yl]carbonyl}imidazo[1,2-a]pyridine-5-carboxamide]	< 2000
CCCN(CC1CC1)C(=O)c1cn2c(C(=O)NC[C@@H]3CC[C@H]4C[C@@H]3C4(C)C)cccc2n1 [Compound 474, 2-N-(cyclopropylmethyl)-5-N-{[(1S,2R,5S)-6,6-dimethylbicyclo[3.1.1]hept-2-yl]methyl}-2-N-propylimidazo[1,2-a]pyridine-2,5-dicarboxamide]	< 2000
CCCCN(CC)C(=O)c1cn2c(C(=O)NC[C@@H]3CC[C@H]4C[C@@H]3C4(C)C)cccc2n1 [Compound 475, 2-N-butyl-5-N-{[(1S,2R,5S)-6,6-dimethylbicyclo[3.1.1]hept-2-yl]methyl}-2-N-ethylimidazo[1,2-a]pyridine-2,5-dicarboxamide]	< 2000
CCN(CC)C(=O)c1cn2c(C(=O)NC[C@@H]3CC[C@H]4C[C@@H]3C4(C)C)cccc2n1 [Compound 477, 5-N-{[(1S,2R,5S)-6,6-dimethylbicyclo[3.1.1]hept-2-yl]methyl}-2-N,2-N-diethylimidazo[1,2-a]pyridine-2,5-dicarboxamide]	< 2000
CCOC(=O)CN(CC)C(=O)c1cn2c(C(=O)NC[C@@H]3CC[C@H]4C[C@@H]3C4(C)C)cccc2n1 [Compound 479, ethyl N-{[5-({[(1S,2R,5S)-6,6-dimethylbicyclo[3.1.1]hept-2-yl]methyl}carbamoyl)imidazo[1,2-a]pyridin-2-yl]carbonyl}-N-ethylglycinate]	< 2000
COC(=O)C1CCCN1C(=O)c1cn2c(C(=O)NC[C@@H]3CC[C@H]4C[C@@H]3C4(C)C)cccc2n1 (stereo partly drawn) [Compound 480, methyl 1-{[5-({[(1S,2R,5S)-6.6-dimethylbicyclo[3.1.1]hept-2-yl]methyl}carbamoyl)imidazo[1,2-a]pyridin-2-yl]carbonyl}prolinate]	< 2000
COC(=O)CN(C)C(=O)c1cn2c(C(=O)NC[C@@H]3CC[C@H]4C[C@@H]3C4(C)C)cccc2n1 [Compound 481, methyl N-{[5-({[(1S,2R,5S)-6,6-dimethylbicyclo[3.1.1]hept-2-yl]methyl}carbamoyl)imidazo[1,2-a]pyridin-2-yl]carbonyl}-N-methylglycinate]	< 2000
CCOC(=O)CN(C)C(=O)c1cn2c(C(=O)NC[C@@H]3CC[C@H]4C[C@@H]3C4(C)C)cccc2n1 [Compound 482, ethyl N-{[5-({[(1S,2R,5S)-6,6-dimethylbicyclo[3.1.1]hept-2-yl]methyl}carbamoyl)imidazo[1,2-a]pyridin-2-yl]carbonyl}-N-methylglycinate]	< 2000
COCCN(C(=O)c1cn2c(C(=O)NC[C@@H]3CC[C@H]4C[C@@H]3C4(C)C)cccc2n1)C(C)C [Compound 483, 5-N-{[(1S,2R,5S)-6,6-dimethylbicyclo[3.1.1]hept-2-yl]methyl}-2-N-isopropyl-2-N-(2-methoxyethyl)imidazo [1,2-a]pyridine-2,5-dicarboxamide]	< 2000
CC1(C)[C@H]2CC[C@@H](CNC(=O)c3cccc4nc(C(=O)N5CCC(F)(F)CC5)cn34)[C@@H]1C2 [Compound 485, 2-[(4,4-difluoropiperidin-1-yl)carbonyl]-N-{[(1S,2R,5S)-6,6-dimethylbicyclo[3.1.1]hept-2-yl]methyl} imidazo[1,2-a]pyridine-5-carboxamide]	< 2000
CC1(C)[C@H]2CC[C@@H](CNC(=O)c3cccc4nc(C(=O)N5CCC(C(F)(F)F)CC5)cn34)[C@@H]1C2 [Compound 488]	< 2000
CO[C@H]1CCN(C(=O)c2cn3c(C(=O)NC[C@@H]4CC[C@H]5C[C@@H]4C5(C)C)cccc3n2)C1 [Compound 492, N-{[(1S,2R,5S)-6,6-dimethylbicyclo[3.1.1]hept-2-yl]methyl}-2-{[(3S)-3-methoxypyrrolidin-1-yl]carbonyl}imidazo [1,2-a]pyridine-5-carboxamide]	< 2000
COC1CCN(C(=O)c2cn3c(C(=O)NC[C@@H]4CC[C@H]5C[C@@H]4C5(C)C)cccc3n2)CC1 [Compound 493, N-{[(1S,2R,5S)-6,6-dimethylbicyclo [3.1.1]hept-2-yl]methyl}-2-[(4-methoxy-piperidin-1-yl)carbonyl] imidazo[1,2-a] pyridine-5-carboxamide]	< 2000
CC1(C)[C@H]2CC[C@@H](CNC(=O)c3cccc4nc(C(=O)N5CCC(F)CC5)cn34)[C@@H]1C2 [Compound 494, N-{[(1S,2R,5S)-6,6-dimethylbicyclo[3.1.1]hept-2-yl]methyl}-2-[(4-fluoropiperidin-1-yl)carbonyl]imidazo[1,2-a]pyridine-5-carboxamide]	< 2000
CC1(C)[C@H]2CC[C@@H](CNC(=O)c3cccc4nc(C(=O)NC5CCC5)cn34)[C@@H]1C2 [Compound 495, 2-N-cyclobutyl-5-N-{[(1S,2R,5S)-6.6-dimethylbicyclo[3.1.1]hept-2-yl]methyl} imidazo[1,2-a]pyridine-2,5-dicarboxamide]	< 2000
CC(C)CNC(=O)c1cn2c(C(=O)NC[C@@H]3CC[C@H]4C[C@@H]3C4(C)C)cccc2n1 [Compound 496, 5-N-{[(1S,2R,5S)-6,6-dimethylbicyclo[3.1.1]hept-2-yl]methyl}-2-N-isobutylimidazo[1,2-a]pyridine-2,5-dicarboxamide]	< 2000
CC1(C)[C@H]2CC[C@@H](CNC(=O)c3cccc4nc(C(=O)NCC5CC5)cn34)[C@@H]1C2 [Compound 497, 2-N-(cyclopropylmethyl)-5-N-{[(1S,2R,5S)-6,6-dimethylbicyclo[3.1.1]hept-2-yl]methyl}imidazo[1,2-a]pyridine-2,5-dicarboxamide]	< 2000
CCCN(C)C(=O)CNC(=O)c1cn2c(C(=O)NC[C@@H]3CC[C@H]4C[C@@H]3C4(C)C)cccc2n1 [Compound 505, 5-N-{[(1S,2R,5S)-6,6-dimethylbicyclo[3.1.1]hept-2-yl]methyl}-2-N-{2-[methyl(propyl)amino]-2-oxoethyl}imidazo[1,2-a]pyridine-2,5-dicarboxamide]	< 2000
CC(C)C[C@@H](NC(=O)c1cn2c(C(=O)NC[C@@H]3CC[C@H]4C[C@@H]3C4(C)C)cccc2n1)C(N)=O [Compound 514, 2-N-[(1R)-1-carbamoyl-3-methylbutyl]-5-N-{[(1S,2R,5S)-6,6-dimethylbicyclo[3.1.1]hept-2-yl]methyl} imidazo[1,2-a]pyridine-2,5-dicarboxamide]	< 2000
CC(C)C[C@H](NC(=O)c1cn2c(C(=O)NC[C@@H]3CC[C@H]4C[C@@H]3C4(C)C)cccc2n1)C(N)=O [Compound 515, 2-N-[(1S)-1-carbamoyl-3-methylbutyl]-5-N-{[(1S,2R,5S)-6,6-dimethylbicyclo [3.1.1]hept-2-yl]methyl} imidazo[1,2-a]pyridine-2,5-dicarboxamide]	< 2000
